The test system of test [1] is In-Vitro Vascular Smooth Muscle of Rabbits. The test is described as follows: Relaxant effect on in vitro rabbit vascular smooth muscle contraction induced by hyperkalemia solution. The note with it: for EC50: Oryctolagus cuniculus, relaxation of rabbit aortic rings contracted by hyperkalemia solution (K+ 60 mmol/L); for relaxant effect against hyperkalemia solution contraction (in words): rabbit vascular smooth muscle.

Test [2] deals with In Vitro Vascular Smooth Muscle of Rabbits. The test can be described thus: Relaxant effect on in vitro rabbit vascular smooth muscle contraction induced by adrenaline (AD). The note with it: for EC50: Oryctolagus cuniculus, relaxation of rabbit aortic rings contracted by AD (10^−5 mol/L); for relaxant effect against AD contraction (in words): rabbit vascular smooth muscle, AD 10^−5 mol/L. From the text: Krebs-Henseleit (K—H) physiological solution: NaCl 6.92 (concentration units), KCl 0.35, MgSO4 0.29, KH2PO4 0.16, CaCl2 0.28, NaHCO3 2.1, glucose 2.0 (g/L), pH 7.2.
Preparation of compound II-1 to II-87 solutions: Weigh a certain quality compound samples and dilute to concentrations (10^−10˜10^−3 mol/L) with distilled water, standby.
Cut the chest open quickly after stunning, strip out the descending aorta, then after removing the surrounding connective tissue and adipose tissue (if performed serotonin receptor antagonist experiments, endothelial cells should be removed using a smooth stainless steel bars), cut the vessels into 3-5 mm vascular ring, then pass the steel hook through the blood vessel ring, with one end is fixed to the vent hook and the other end connected to the tension transducer, then place the specimens into bath tube containing 20 mL of nutrient solution, and record tension change by tension transducer. Maintain tube temperature at 37±0.5° C., and pass bubbles (95% O2+5% CO2) into the solution as a speed of 1-2 bubbles/minute. Place an initial load of 1.5 g on the rings, and change nutrient every 20 minutes, then balance for 2 hours and start test after baseline readings are stabilized.
After tension readings are stabilized, record a certain length of tension curve, and add spasmogens agent AD (10^−5 mol/L) to induce contraction; if a maximum contract is achieved, wash the specimens thoroughly, and change K—H solution every 20 minutes, and then balance for 60 minutes; after baseline readings are stabilized, induce contract with spasmogens agent again. When the maximum contract in the later induction is consistent with the former induction, add compound II-1 to II-34 solutions (1×10^−10 to 1×10^−3 mol/L), II-35 to II-87 solutions (1×10^−8-1×10^−3 mol/L), and record the curves. Draw a dose-response curve using maximum relaxation response as 100%, relaxation percentage as ordinate and negative logarithms of the each concentration as abscissa.

For orientation: EC50 means the midpoint of the concentration-response curve. A higher EC50 goes with a less potent agent.

Consider `Clc1cccc(C2CCN(CCCCn3cnc4ccccc43)CC2)c1` [Compound II-1, N-(4-(1H-benzimidazol-1-yl)butyl)-4-(3-chlorophenyl)piperidine], for which the EC50 in test [1] was 20.4 µM. As to `FC(F)(F)c1cccc(C2CCN(CCCCn3cnc4ccccc43)CC2)c1` [Compound II-3, N-(4-(1H-benzimidazol-1-yl)butyl)-4-(3-trifluoromethylphenyl)piperidine], in test [1], the concentration giving a half-maximal response (EC50) is 0.977 µM.

In the case of `COc1ccccc1C1CCN(CCCCn2cnc3ccccc32)CC1` [Compound II-6, N-(4-(1H-benzimidazol-1-yl)butyl)-4-(2-methoxyphenyl)piperidine], in test [1], it took 41.7 µM to reach a half-maximal effect (EC50). As for `Clc1cccc(N2CCN(CCCCn3cnc4ccccc43)CC2)c1Cl` [Compound II-37, 1-(4-(4-(2,3-dichlorophenyl)piperazin-1-yl)butyl)-1H-benzimidazole], in test [1], the EC50 is 3.24 µM and the “relaxant effect against hyperkalemia solution contraction (in words)” value is on record as “significant relaxant effect”. Also, in test [2], the midpoint of the response, the EC50, lay at 0.977 µM and the “relaxant effect against AD contraction (in words)” value is listed as “most significant relaxation effects”. In the case of `Clc1cccc(N2CCN(CCCCn3nnc4ccccc43)CC2)c1` [Compound II-63, 1-(4-(4-(3-chlorophenyl)piperazin-1-yl)butyl)-1H-benzotriazole], in test [1], the EC50 is 2.29 µM and the “relaxant effect against hyperkalemia solution contraction (in words)” value is reported as “significant relaxant effect”. In test [2], it took 0.977 µM to reach a half-maximal effect (EC50) and the “relaxant effect against AD contraction (in words)” value is reported as “most significant relaxation effects”. `FC(F)(F)c1cccc(C2CCN(CCCCn3nnc4ccccc43)CC2)c1` [II-4, N-(4-(1H-benzotriazole-1-yl)butyl)-4-(3-trifluoromethylphenyl)piperidine]: the EC50 in test [1] was 0.759 µM. Consider `Fc1cccc(C2CCN(CCCCn3cnc4ccccc43)CC2)c1` [II-5, N-(4-(1H-benzimidazol-1-yl)butyl)-4-(3-fluorophenyl)piperidine], for which the midpoint of the response in test [1], the EC50, lay at 36.3 µM. Still for that read-out and setting: the value for `Fc1ccc2nnn(CCCCN3CCC(c4cccc(C(F)(F)F)c4)CC3)c2c1` [II-7, N-(4-(6-fluoro-1H-benzotriazole-1-yl)butyl)-4-(3-trifluoromethylphenyl)piperidine] was 9.33 µM; that for `COc1ccc2nnn(CCCCN3CCC(c4cccc(C(F)(F)F)c4)CC3)c2c1` [II-8, N-(4-(6-methoxy-1H-benzotriazole-1-yl)butyl)-4-(3-trifluoromethylphenyl)piperidine] was 27.5 µM; that for `N#Cc1ccc2nnn(CCCCN3CCC(c4cccc(C(F)(F)F)c4)CC3)c2c1` [II-9, N-(4-(6-cyano-1H-benzotriazole-1-yl)butyl)-4-(3-trifluoromethylphenyl)piperidine] was 58.9 µM. Still for that read-out and setting: the value for `FC(F)(F)c1cccc(C2CCN(CCCOn3nnc4ccccc43)CC2)c1` [II-10, N-(4-(1H-benzotriazole-1-yl)propoxy)-4-(3-trifluoromethylphenyl)piperidine] was 6.03 µM; that for `FC(F)(F)c1cccc(C2CCN(CCCOn3cnc4ccccc43)CC2)c1` [II-11] was 6.76 µM; that for `Cc1ccc2c(C3CCN(CCCn4nnc5ccccc54)CC3)noc2c1` [II-12, N-(3-(1H-benzotriazole-1-yl)propyl)-4-(3-(6-methyl-benzisoxazole))piperidine] was 8.13 µM. On to `COc1ccc2c(C3CCN(CCCn4nnc5ccccc54)CC3)noc2c1` [II-13, N-(3-(1H-benzotriazole-1-yl)propyl)-4-(3-(6-methoxy-benzene and isoxazole))piperidine], for which the EC50 in test [1] was 7.59 µM.

Molecule `Fc1ccc2c(C3CCN(CCCn4nnc5ccc(F)cc54)CC3)noc2c1` [II-14, N-(3-(6-fluoro-1H-benzotriazole-1-yl)propyl)-4-(3-(6-fluorobenzoisoxazole))piperidine] had an EC50 in test [1] of 1.91 µM. Regarding `Fc1ccc2c(C3CCN(CCCn4nnc5ccc(Cl)cc54)CC3)noc2c1` [II-15, N-(3-(6-chloro-1H-benzotriazole-1-yl)propyl)-4-(3-(6-fluorobenzoisoxazole))piperidine], the response in test [1] was half-maximal at 7.59 µM (EC50). In the case of `Cc1ccc2nnn(CCCN3CCC(c4noc5cc(F)ccc45)CC3)c2c1` [II-16, N-(3-(6-methyl-1H-benzotriazole-1-yl)propyl)-4-(3-(6-fluorobenzoisoxazole))piperidine], it took 5.25 µM to reach a half-maximal effect in test [1] (EC50). `O=Cc1ccc2nnn(CCCN3CCC(c4noc5cc(F)ccc45)CC3)c2c1` [II-18, N-(3-(6-formyl-1H-benzotriazole-1-yl)propyl)-4-(3-(6-fluorobenzoisoxazole))piperidine] gave an EC50 in test [1] of 4.79 µM. In test [1], `COc1ccc2nnn(CCCN3CCC(c4noc5ccccc45)CC3)c2c1` [II-19, N-(3-(6-methoxybenzotriazolyl)propyl)-4-(3-benzoisoxazole)piperidine] had an EC50 of 7.76 µM.

In turn, `COc1ccc2c(C3CCN(CCCCn4nnc5ccc(C#N)cc54)CC3)noc2c1` [II-23, N-(4-(6-cyano-benzotriazole-yl)butyl)-4-(3-(6-methoxy-benzene and isoxazole)) piperidine] showed an EC50 in test [1] of 58.9 µM. This EC50 lies about 7.6-fold higher than the previous one.

On to `c1coc(C2CCN(CCCCn3cnc4ccccc43)CC2)c1` [II-29, N-(4-(1H-benzimidazol-1-yl)butyl)-4-(2-furyl)piperidine], for which, in test [1], the EC50 is 29.5 µM. Compared with the last molecule, the EC50 is about 2-fold lower.

In the case of `c1ccc2c(c1)ncn2CCCCN1CCC(c2ccncc2)CC1` [II-30, N-(4-(1H-benzimidazol-1-yl)butyl)-4-(4-pyridyl)piperidine], the EC50 in test [1] is 55 µM. The same measure, in the same setting: the value for `c1cnc(C2CCN(CCCCn3cnc4ccccc43)CC2)nc1` [II-31, N-(4-(1H-benzimidazol-1-yl)butyl)-4-(2-pyrimidinyl)piperidine] was 47.9 µM; that for `c1ccc2c(c1)nnn2CCCCN1CCC(C2CCCCC2)CC1` [II-32, N-(4-(1H-benzotriazole-1-yl)butyl)-4-cyclohexyl piperidine] was 72.4 µM; that for `c1ccc2c(C3CCN(CCCCn4nnc5ccccc54)CC3)cccc2c1` [II-33, N-(4-(1H-benzotriazole-1-yl)butyl)-4-(1-naphthyl)piperidine] was 91.2 µM. `c1ccc2nc(C3CCN(CCCCn4nnc5ccccc54)CC3)cnc2c1` [II-34, N-(4-(1H-benzotriazole-1-yl)butyl)-4-(2-quinoxalinyl)piperidine] showed an EC50 in test [1] of 74.1 µM. In the case of `c1ccc2c(c1)ncn2CCCCN1CCN(c2n[nH]c3ccccc23)CC1` [II-54, 1-(4-(4-(3-benzopyrazolyl)piperazin-1-yl)butyl)-1H-benzimidazole], the EC50 was 117 µM in test [1] and 58.9 µM in test [2]. For the molecule `Clc1cccc(N2CCN(CCCn3nnc4ccccc43)CC2)c1Cl` [II-72, 1-(3-(4-(2,3-dichlorophenyl)piperazin-1-yl)propyl)-1H-benzotriazole], the EC50 in test [1] is 4.68 µM; in test [2], 1.91 µM. Regarding `Cc1cccc(N2CCN(CCCn3nnc4ccccc43)CC2)c1` [II-73, 1-(3-(4-(3-methylphenyl)piperazin-1-yl)propyl)-1H-benzotriazole], the EC50 in test [1] was 6.03 µM; in test [2] it was 3.39 µM.

On to `N#Cc1ccc2nnn(CCCCN3CCN(c4cccc(C(F)(F)F)c4)CC3)c2c1` [II-84, 6-cyano-1-(4-(4-(3-trifluoromethylphenyl)piperazin-1-yl)butyl)-1H-benzotriazole], for which the concentration for a half-maximal effect (EC50) in test [1] was 49 µM. That is a double-digit micromolar value. Turning to `COC(=O)c1ccc2nnn(CCCCN3CCN(c4cccc(C(F)(F)F)c4)CC3)c2c1` [II-85, 6-methoxycarbonyl-1-(4-(4-(3-trifluoromethylphenyl)piperazin-1-yl)butyl)-1H-benzotriazole], in test [1], the EC50 is 77.6 µM.

`Fc1ccc2c(N3CCN(CCCOn4nnc5ccccc54)CC3)noc2c1` [II-86]: the EC50 was 26.3 µM in test [1] and 13.2 µM in test [2].
